Data taken from PMC3001885, “Metabolic Activity and mRNA Levels of Human Cardiac CYP450s Involved in Drug Metabolism” (PLoS ONE, 2010).

Assays:
human heart microsomes = experiment: Verapamil metabolism in human heart microsomes (formation of metabolites, HPLC); assay type: in vitro ADME
Protocol: The HPLC system (Thermo Separation products, Fremont, CA) consisted of a SpectraSystem P4000 pump, a SpectraSystem AS3000 autosampler, a FL3000 fluorescence detector, a SpectraSystem UV3000 ultraviolet detector and PC1000 System Software.
Frozen samples of human heart ventricles (4–10 g) were immersed in cold phosphate buffer 100 mM (pH 7.4) containing potassium chloride 150 mM, EDTA 1 mM, dithiotreitol 0.5 mM and PMSF 0.01 mM (1∶3, w/v). Tissue was roughly sliced prior to homogenization using a Polytron. The resulting suspension was sonicated 3 times for 5–10 seconds. Homogenization and sonication were performed on ice. Microsomal fractions were isolated by centrifugation at 10,000 g for 20 minutes. The resulting supernatant was centrifuged twice at 100,000 g for 2 consecutive 90-minute periods. The final microsomal pellet was resuspended in a phosphate buffer 100 mM (pH 7.4), potassium chloride 150 mM and EDTA 1 mM. All procedures were performed at 4°C. […] The leftover heart microsomes were immediately shock frozen in liquid nitrogen for subsequent protein quantification. Microsomal heart proteins were quantified using a BCA Pierce kit.
All microsomal incubations were performed in duplicate.
Incubations containing microsomes, buffer and NADPH-regenerating system solution were pre-incubated at 37°C for 10 minutes. […] The enzymatic process was stopped by adding 500 µL of ice-cold acetonitrile. Different incubation times were assessed: 15 minutes to 4 hours. Incubation mixtures were centrifuged at 15,000 rpm for 10 minutes.
A series of incubations was also performed with previously inactivated human heart microsomes. The CYP450 proteins were inactivated by heating microsomes at 60°C for 10 minutes. Incubations were also conducted in the presence of nitrogen gas or carbon monoxide gas in replacement of ambient air to inactivate CYP450s.

[1] = test system: CYP450s in human heart microsomes; experiment: Inhibition of verapamil metabolite formation in human heart microsomes by chemical inhibitors; conditions: inhibitor 100 µM, verapamil 400 µM
[2] = left ventricular microsomes, n = 20, substrate verapamil
[3] = microsomes prepared from right ventricles, n = 8, substrate verapamil

| SMILES | formation rate of verapamil metabolites, median (range; minimum-maximum values) (human heart microsomes; [2]) | formation rate of verapamil metabolites, median (range; minimum-maximum values) (human heart microsomes; [3]) | decrease in formation of all major verapamil metabolites [1] |
| --- | --- | --- | --- |
| COc1cc(C(C#N)(CCCNCCc2ccc(OC)c(OC)c2)C(C)C)ccc1O (stereo not drawn) [PR22] | 27 (2.1–76) pmol/min/mg of heart microsomal proteins | 21 (3.7–64.4) pmol/min/mg of heart microsomal proteins |  |
| COc1ccc(CCNCCCC(C#N)(c2ccc(OC)c(OC)c2)C(C)C)cc1OC (stereo not drawn) [norverapamil] | 25 (5.8–214) pmol/min/mg of heart microsomal proteins | 39 (5.8–145) pmol/min/mg of heart microsomal proteins |  |
| CCCCCCCCN [N-octylamine] |  |  | more than 80% |
| CCCC(C(=O)OCCN(CC)CC)(c1ccccc1)c1ccccc1 [SKF525] |  |  | more than 80% |
